Measurements: US11793827B2, “Adenosine derivative and pharmaceutical composition comprising the same” (Brii Biosciences, Inc., priority 2021, dated 2023)

Legend:
[1] = Plasma exposures following intramuscular administration of prodrugs to cynomolgus monkeys; details: single IM injection, 10 mg/kg
[2] = Liver S9 stability (human liver S9); assay type: in vitro ADME; details: for half-life at 1 µM: human liver S9, 37° C.; for Formation of EFdA at 30 min: human liver S9, 30 min
Protocol: Add 600 μL/well stop solution (cold in 4° C., including 100 ng/mL Tolbutamide/100 ng/mL Labetalol) to terminate the TO plate, then put it on ice. Dispense 840 μL/well S9 solution to 96-well plate as reservoir according to plate map. Then add 100 μL/well to every plate by Apricot. Incubate S9 solution and compound at 37° C. for about 10 min except NCF60 and TO. After adding S9 solution and 98μ LPB buffer to NCF60, incubate at 37° C. without pre-warming, start timer 1. After 60 min, add 600 μL/well stop solution to terminate the reaction. After pre-warming, dispense 760 μL/well cofactor solution to 96-well plate as reservoir according to plate map. Then add 98 μL/well to every plate by Apricot to start reaction. Incubate at 37° C., start timer 2, Add 600 μL/well stop solution (cold in 4° C., including 100 ng/mL Tolbutamide and Labetalol) to terminate the reaction. Samples are centrifuged at 4000 rpm for 20 min. While centrifuging, load 8× new 96-well plate with 300 μL HPLC water, then transfer 100 μL supernatant, mix with water for LC/MS/MS, transferred to Bioanalytical Services for LC-MS/MS analysis. Use equation of first order kinetics [NT]1/2 and CL: Equation of first order kinetics: [formula] [formula] [formula] [formula]

[3] = Plasma stability (human plasma); details: for Formation of EFdA at 30 min: human plasma; for half-life at 2 µM: human, pH 7.4
Protocol: The pooled frozen plasma was thawed in a water bath at 37° C. prior to experiment. Plasma was centrifuged at 4000 rpm for 5 min and the clots were removed if any. The pH will be adjusted to 7.4±0.1 if required.
Preparation of test compounds and positive control (propantheline bromide): 1 mM intermediate solution was prepared by diluting 10 μL of the stock solution with 90 μL MeOH; 1 mM intermediate of positive control Propantheline was prepared by diluting 10 μL of the stock solution with 90 μL ultrapure water. 100 μM dosing solution was prepared by diluting 20 μL of the intermediate solution (1 mM) with 180 μL MeOH. 98 μL of blank plasma was spiked with 2 μL of dosing solution (100 μM) to achieve 2 μM of the final concentration in duplicate and samples were incubated at 37° C. in a water bath. […] Centrifuged sample plates at 4,000 rpm for 10 min. An aliquot of supernatant (100 μL) was transferred from each well to another plates.

Structure (SMILES) | Release of EFdA in vivo and prodrug level in the systemic circulation [1] | half-life at 1 µM [2] [min] | Formation of EFdA at 30 min [2] | Formation of EFdA at 30 min [3] | half-life at 2 µM ([3]; pooled plasma) [min] | half-life at 2 µM ([3]; plasma) [min]
C#C[C@]1(COC(=O)OCCC23CC4CC(CC(C4)C2)C3)O[C@@H](n2cnc3c(N)nc(F)nc32)C[C@@H]1O [Compound 7, ((2R, 3S, 5R)-5-(6-amino-2-fluoro-9H-purin-9-yl)-2-ethynyl-3-hydroxy-tetrahydrofuran-2-yl)methyl 2-(1-adamantyl)ethyl carbonate] | efficiently release EFdA in vivo with minimal to low levels of prodrug detected in the systemic circulation | < 50 | Yes | Yes | < 50 | 
C#C[C@]1(COC(=O)OCCCC23CC4CC(CC(C4)C2)C3)O[C@@H](n2cnc3c(N)nc(F)nc32)C[C@@H]1O [Compound 10, ((2R,3S,5R)-5-(6-amino-2-fluoro-9H-purin-9-yl)-2-ethynyl-3-hydroxy-tetrahydrofuran-2-yl)methyl 3-(1-adamantyl)propyl carbonate] | efficiently release EFdA in vivo with minimal to low levels of prodrug detected in the systemic circulation | < 50 | Yes | Yes | < 50 | 
C#C[C@]1(COC(=O)OCCCCC23CC4CC(CC(C4)C2)C3)O[C@@H](n2cnc3c(N)nc(F)nc32)C[C@@H]1O [Compound 12, ((2R,3S,5R)-5-(6-amino-2-fluoro-9H-purin-9-yl)-2-ethynyl-3-hydroxy-tetrahydrofuran-2-yl)methyl 4-(1-adamantyl)butyl carbonate] | efficiently release EFdA in vivo with minimal to low levels of prodrug detected in the systemic circulation | < 50 | Yes | Yes | < 50 | 
C#C[C@]1(COC(=O)OCCCC23CC4CC(CC(C4)C2)C3)O[C@@H](n2cnc3c(N)nc(F)nc32)C[C@@H]1OC(=O)OCCCC12CC3CC(CC(C3)C1)C2 [Compound 22, ((2R,3S,5R)-3-[3-(1-adamantyl)propoxycarbonyloxy]-5-(6-amino-2-fluoro-9H-purin-9-yl)-2-ethynyl-tetrahydrofuran-2-yl)methyl 3-(1-adamantyl)propyl carbonate] |  | 50 to 200 | Yes | No | > 200 | 
C#C[C@]1(COC(=O)OCC23CC4CC(CC(C4)C2)C3)O[C@@H](n2cnc3c(N)nc(F)nc32)C[C@@H]1OC(=O)OCC12CC3CC(CC(C3)C1)C2 [Compound 23, ((2R,3S,5R)-3-(1-adamantylmethoxycarbonyloxy)-5-(6-amino-2-fluoro-9H-purin-9-yl)-2-ethynyl-tetrahydrofuran-2-yl)methyl 1-adamantylmethyl carbonate] |  | < 50 | Yes | No | > 200 | 
C#C[C@]1(COC(=O)OCC23CC4CC(CC(C4)C2)C3)O[C@@H](n2cnc3c(N)nc(F)nc32)C[C@@H]1OC(=O)OCC [Compound 24, ((2R,3S,5R)-2-(1-adamantylmethoxycarbonyloxymethyl)-5-(6-amino-2-fluoro-9H-purin-9-yl)-2-ethynyl-tetrahydrofuran-3-yl) ethyl carbonate] |  | < 50 | Yes | Yes |  | 50 to 200
C#C[C@]1(COC(=O)OCCCCC23CC4CC(CC(C4)C2)C3)O[C@@H](n2cnc3c(N)nc(F)nc32)C[C@@H]1OC(=O)OCC [Compound 25, ((2R,3S,5R)-2-[4-(1-adamantyl)butoxycarbonyloxymethyl]-5-(6-amino-2-fluoro-9H-purin-9-yl)-2-ethynyl-tetrahydrofuran-3-yl) ethyl carbonate] |  | < 50 | Yes | Yes |  | 50 to 200
C#C[C@]1(COC(=O)OCCCC23CC4CC(CC(C4)C2)C3)O[C@@H](n2cnc3c(N)nc(F)nc32)C[C@@H]1OC(=O)OCC [Compound 26, ((2R,3S,5R)-2-[3-(1-adamantyl)propoxycarbonyloxymethyl]-5-(6-amino-2-fluoro-9H-purin-9-yl)-2-ethynyl-tetrahydrofuran-3-yl) ethyl carbonate] |  | < 50 | Yes | Yes |  | < 50
C#C[C@]1(COC(=O)OC23CC4CC(CC(C4)C2)C3)O[C@@H](n2cnc3c(N)nc(F)nc32)C[C@@H]1OC(=O)OCC [Compound 27, 1-adamantyl ((2R,3S,5R)-5-(6-amino-2-fluoro-purin-9-yl)-3-ethoxycarbonyloxy-2-ethynyl-tetrahydrofuran-2-yl)methyl carbonate] |  | < 50 | Yes | No |  | > 200
C#C[C@]1(COC(=O)OC23CC4CC(CC(C4)C2)C3)O[C@@H](n2cnc3c(N)nc(F)nc32)C[C@@H]1OC(=O)C(C)C [Compound 28, ((2R,3S,5R)-2-(1-adamantyloxycarbonyloxymethyl)-5-(6-amino-2-fluoro-9H-purin-9-yl)-2-ethynyl-tetrahydrofuran-3-yl) 2-methylpropanoate] |  | < 50 | Yes | No | > 200 | 
